Our source for the IC50 values is US10266564B2, “Cationic lipid cordiarimide hybrid compounds and a process for preparation thereof” (COUNCIL OF SCIENTIFIC & INDUSTRIAL RESEARCH, priority 2014, dated 2019).

pIC50: −log10 of the molar value. Bounds are passed on as bounds.

Test [1] has as its system mouse embryo fibroblasts (NIH/3T3). The test is described as follows: MTT assay for cell viability, NIH/3T3. In kind it is cell-based. The conditions noted are these: NIH3T3, 48 h. As for the experimental part:
(§1) The human cancer cell lines e.g. HepG2 (hepatocellular carcinoma, ATCC® HB-8065™), PC-3 (human prostate cancer cells, ATCC® CRL-1435™), MCF-7 (breast adenocarcinoma, ATCC® […]), and mouse embryo fibroblasts (NIH/3T3, ATCC® CRL-1658™), used in the present study were obtained from the ATCC (American Type Culture Collection, USA and maintained in RPMI 1640 (Roswell Park Memorial Institute, Merck) with 10% FBS (Merck), supplemented with 1% antibiotic and antimycotic solution (Gibco, USA) at 37° C. in a humidified incubator with 5% CO2. All stock solutions of the compounds were prepared in cell culture grade DMSO (dimethyl sulfoxide) and stored at −20° C. Compounds were diluted in culture media prior to use in experiments. Annexin V-FITC apoptosis detection kits were purchased from Calbiochem. MTT dye was procured from Sigma-Aldrich. All the flow cytometry experiments were performed using a FACScan (Becton Dickinson, Mountain View, Calif.) flow cytometer, equipped with a single 488 nm argon laser.
(§2) Cell viability was assessed by MTT assay, which is based on the reduction of MTT by mitochondrial dehydrogenases of viable cells to form a purple formazan product. Briefly, cells (5-6×10^3/well) were plated in 96 well plates. After incubating overnight, the cells were treated with […] different concentrations (100, 50, 20, 10, 5, 2.5, 1.25 μM) in triplicates with the cationic lipidated cordiarimide and intermediates for 48 h. Subsequently, 10 μL of MTT (10 mg/mL) was added to each well and incubated for 3 h. The MTT formazan formed by viable cells was dissolved in 100 μL of DMSO and shaken for 10 min. The absorbance was measured on an ELISA reader. Each test was repeated at least three times. The concentration of the compound which gives the 50% growth inhibition value corresponding to IC50, was calculated using GraphPad prism 5 software. In the present invention we have screened 26 lipidated cordiarimides and the results are described in table 1.
(In general: Tetrazolium assays rely on reduction of a dye to a coloured formazan, in cell work by metabolically active cells.)

The subject of test [2] is MCF-7 (breast adenocarcinoma). The test is described as follows: MTT assay for cell viability, MCF-7. The conditions noted are these: Homo sapiens, MCF7, 48 h. In kind it is cell-based, human. As for the experimental part: as §1, §2
The subject of test [3] is PC-3 (human prostate cancer cells). Description: MTT assay for cell viability, PC-3. It counts as cell-based. The conditions noted are these: Homo sapiens, 48 h. As for the experimental part:
as §1, §2

The test system of test [4] is HepG2 (hepatocellular carcinoma). The test is described as follows: MTT assay for cell viability, HepG2. It counts as cell-based, human. The conditions noted are these: Homo sapiens, HepG2, 48 h. As for the experimental part:
as §1, §2

The pIC50 is −log10 of the IC50, conventionally taken in molar units. Low readings indicate a high IC50, high ones a low IC50. Take `CCN(CC)CC(=O)NC1CCC(=O)N(CC(=O)c2ccccc2)C1=O` (centres unmarked) [Compound 7a, 2-Diethylamino-N-[2,6-dioxo-1-(2-oxo-2-phenyl-ethyl)-piperidin-3-yl]-acetamide]: the pIC50 in test [1], in test [2], in test [3] and in test [4] was less than 4.70 in each case.

Consider `CCCN(CCC)CC(=O)NC1CCC(=O)N(CC(=O)c2ccccc2)C1=O` (centres unmarked) [Compound 7b, 2-Dipropylamino-N-[2,6-dioxo-1-(2-oxo-2-phenyl-ethyl)-piperidin-3-yl]acetamide], for which the negative-log IC50 (pIC50) in test [1], in test [2], in test [3] and in test [4] was less than 4.70 in each case.

For the molecule `CCCCN(CCCC)CC(=O)NC1CCC(=O)N(CC(=O)c2ccccc2)C1=O` (centres unmarked) [Compound 7c, 2-Dibutylamino-N-[2,6-dioxo-1-(2-oxo-2-phenyl-ethyl)-piperidin-3-yl]-acetamide], the pIC50 in test [1], in test [2], in test [3] and in test [4] was less than 4.70 each time.

On to `CCCCCN(CCCCC)CC(=O)NC1CCC(=O)N(CC(=O)c2ccccc2)C1=O` (centres unmarked) [Compound 7d, 2-Dipentylamino-N-[2,6-dioxo-1-(2-oxo-2-phenyl-ethyl)-piperidin-3-yl]-acetamide], for which the pIC50 in test [1] is less than 4.70; in test [2], less than 4.70; in test [3], less than 4.70; in test [4] it was 4.90.

For `CCCCCCN(CCCCCC)CC(=O)NC1CCC(=O)N(CC(=O)c2ccccc2)C1=O` (centres unmarked) [Compound 7e, 2-Dihexylamino-N-[2,6-dioxo-1-(2-oxo-2-phenyl-ethyl)-piperidin-3-yl]-acetamide], the pIC50 in test [1] is 5.43; in test [2] it was 5.41; in test [3], less than 4.70; in test [4], 5.24.

Consider `CCCCCCCN(CCCCCCC)CC(=O)NC1CCC(=O)N(CC(=O)c2ccccc2)C1=O` (centres unmarked) [Compound 7f, 2-Diheptylamino-N-[2,6-dioxo-1-(2-oxo-2-phenyl-ethyl)-piperidin-3-yl]-acetamide], for which the pIC50 is 5.06 in test [1], 5.03 in test [2], less than 4.70 in test [3] and 5.11 in test [4].

As for `CCCCCCCCN(CCCCCCCC)CC(=O)NC1CCC(=O)N(CC(=O)c2ccccc2)C1=O` (centres unmarked) [Compound 7g, 2-Dioctylamino-N-[2,6-dioxo-1-(2-oxo-2-phenyl-ethyl)-piperidin-3-yl]-acetamide], the pIC50 in test [1] is 5.14; in test [2] it was 4.99; in test [3], less than 4.70; in test [4], 4.94.

`CCCCCCCCCN(CCCCCCCCC)CC(=O)NC1CCC(=O)N(CC(=O)c2ccccc2)C1=O` (centres unmarked) [Compound 7h, 2Dinonylamino-N-[2,6-dioxo-1-(2-oxo-2-phenyl-ethyl)-piperidin-3-yl]-acetamide]: the pIC50 in test [1] is 4.97; in test [2], 4.70; in test [3], less than 4.70; in test [4], less than 4.70.

For `CCCCCCCCCCN(CCCCCCCCCC)CC(=O)NC1CCC(=O)N(CC(=O)c2ccccc2)C1=O` (centres unmarked) [Compound 7i, 2-(Bis-decyl-amino)-N-[2,6-dioxo-1-(2-oxo-2-phenyl-ethyl)-piperidin-3-yl]acetamide], the pIC50 in test [1] was less than 4.70; in test [2] it was 4.85; in test [3] it was less than 4.70; in test [4] it was less than 4.70.

Regarding `CCCCCCCCCCCN(CCCCCCCCCCC)CC(=O)NC1CCC(=O)N(CC(=O)c2ccccc2)C1=O` (centres unmarked) [Compound 7j, N-[2,6-Dioxo-1-(oxo-2-phenyl-ethyl)-piperidine-3-yl]-2-diundecylamino-acetamide], the pIC50 in test [1] is less than 4.70; in test [2] it was less than 4.70; in test [3], 4.76; in test [4], less than 4.70.

For `CCCCCCCCCCCCN(CCCCCCCCCCCC)CC(=O)NC1CCC(=O)N(CC(=O)c2ccccc2)C1=O` (centres unmarked) [Compound 7k, N-[2,6-Dioxo-1-(oxo-2-phenyl-ethyl)-piperidine-3-yl]-2-didodecylamino-acetamide], the pIC50 in test [1], in test [2], in test [3] and in test [4] was less than 4.70 throughout.
